Experimental data from patent US11447466B2, “Substituted indole compounds useful as inhibitors of TLR7/8/9” (BRISTOL-MYERS SQUIBB COMPANY, priority 2017, dated 2022).

Columns and labels:
Format in all cases: cell-based
human TLR9 = molecular target: T1, human TLR9 (Homo sapiens, UniProt Q9NR96); assay: TLR9 inhibition reporter assay (HEK-Blue SEAP reporter, ODN2006 stimulation); details: HEK-Blue cells overexpressing human TLR9, SEAP reporter, ODN2006 5 nM, 22 hour incubation
T1 construct: host or cells: HEK-Blue cells
T1 sequence (Q9NR96 26-1032): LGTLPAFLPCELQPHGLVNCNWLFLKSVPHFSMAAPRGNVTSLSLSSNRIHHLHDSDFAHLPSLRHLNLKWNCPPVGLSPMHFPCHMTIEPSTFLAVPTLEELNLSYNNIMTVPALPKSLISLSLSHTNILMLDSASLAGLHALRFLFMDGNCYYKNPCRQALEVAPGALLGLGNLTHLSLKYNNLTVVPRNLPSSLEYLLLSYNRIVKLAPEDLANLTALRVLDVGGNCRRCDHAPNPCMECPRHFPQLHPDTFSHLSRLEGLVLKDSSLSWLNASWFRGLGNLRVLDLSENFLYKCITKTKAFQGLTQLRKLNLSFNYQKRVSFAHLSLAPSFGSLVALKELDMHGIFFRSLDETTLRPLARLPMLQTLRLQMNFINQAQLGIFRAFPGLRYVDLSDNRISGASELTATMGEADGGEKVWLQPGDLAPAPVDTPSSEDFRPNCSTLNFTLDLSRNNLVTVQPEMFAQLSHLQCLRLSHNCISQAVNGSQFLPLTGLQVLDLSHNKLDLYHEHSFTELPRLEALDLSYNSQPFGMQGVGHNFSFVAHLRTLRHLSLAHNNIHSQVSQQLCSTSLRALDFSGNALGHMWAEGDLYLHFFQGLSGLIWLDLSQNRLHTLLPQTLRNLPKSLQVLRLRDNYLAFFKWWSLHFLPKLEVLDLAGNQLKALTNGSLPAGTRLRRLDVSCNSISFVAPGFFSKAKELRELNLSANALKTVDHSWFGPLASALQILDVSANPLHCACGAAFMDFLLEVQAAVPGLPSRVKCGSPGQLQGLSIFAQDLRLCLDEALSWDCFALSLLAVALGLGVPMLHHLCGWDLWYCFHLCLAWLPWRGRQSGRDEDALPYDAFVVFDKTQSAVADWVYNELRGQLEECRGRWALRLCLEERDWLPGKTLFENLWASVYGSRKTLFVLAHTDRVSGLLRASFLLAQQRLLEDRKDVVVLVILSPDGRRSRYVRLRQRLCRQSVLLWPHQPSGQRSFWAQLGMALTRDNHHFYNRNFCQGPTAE
Description: (§1) TLR7/8/9 Inhibition Reporter Assays
(§2) HEK-Blue™-cells (Invivogen) overexpressing human TLR7, TLR8 or TLR9 receptors were used for screening inhibitors of these receptors using an inducible SEAP (secreted embryonic alkaline phosphatase) reporter gene under the control of the IFN-β minimal promoter fused to five NF-κB and AP-1-binding sites. Briefly, cells are seeded into Greiner 384 well plates (15000 cells per well for TLR7, 20,000 for TLR8 and 25,000 for TLR9) and then treated with test compounds in DMSO to yield a final dose response concentration range of 0.05 nM-50 μM. After a 30 minute compound pre-treatment at room temperature, the cells are then stimulated with a TLR7 ligand (gardiquimod at a final concentration of 7.5 μM), TLR8 ligand (R848 at a final concentration of 15.9 μM) or TLR9 ligand (ODN2006 at a final concentration of 5 nM) to activate NF-κB and AP-1 which induce the production of SEAP. After a 22 hour incubation at 37° C., 5% CO2, SEAP levels are determined with the addition of HEK-Blue™ Detection reagent (Invivogen), a cell culture medium that allows for detection of SEAP, according to manufacturer's specifications. The percent inhibition is determined as the % reduction in the HEK-Blue signal present in wells treated with agonist plus DMSO alone compared to wells treated with a known inhibitor.

human TLR8 = molecular target: T2, human TLR8 (Homo sapiens, UniProt Q9NR97); assay: TLR8 inhibition reporter assay (HEK-Blue SEAP reporter, R848 stimulation); details: HEK-Blue cells overexpressing human TLR8, SEAP reporter, R848 15.9 μM, 22 hour incubation
T2 construct: host or cells: HEK-Blue cells
T2 sequence (Q9NR97 27-1041): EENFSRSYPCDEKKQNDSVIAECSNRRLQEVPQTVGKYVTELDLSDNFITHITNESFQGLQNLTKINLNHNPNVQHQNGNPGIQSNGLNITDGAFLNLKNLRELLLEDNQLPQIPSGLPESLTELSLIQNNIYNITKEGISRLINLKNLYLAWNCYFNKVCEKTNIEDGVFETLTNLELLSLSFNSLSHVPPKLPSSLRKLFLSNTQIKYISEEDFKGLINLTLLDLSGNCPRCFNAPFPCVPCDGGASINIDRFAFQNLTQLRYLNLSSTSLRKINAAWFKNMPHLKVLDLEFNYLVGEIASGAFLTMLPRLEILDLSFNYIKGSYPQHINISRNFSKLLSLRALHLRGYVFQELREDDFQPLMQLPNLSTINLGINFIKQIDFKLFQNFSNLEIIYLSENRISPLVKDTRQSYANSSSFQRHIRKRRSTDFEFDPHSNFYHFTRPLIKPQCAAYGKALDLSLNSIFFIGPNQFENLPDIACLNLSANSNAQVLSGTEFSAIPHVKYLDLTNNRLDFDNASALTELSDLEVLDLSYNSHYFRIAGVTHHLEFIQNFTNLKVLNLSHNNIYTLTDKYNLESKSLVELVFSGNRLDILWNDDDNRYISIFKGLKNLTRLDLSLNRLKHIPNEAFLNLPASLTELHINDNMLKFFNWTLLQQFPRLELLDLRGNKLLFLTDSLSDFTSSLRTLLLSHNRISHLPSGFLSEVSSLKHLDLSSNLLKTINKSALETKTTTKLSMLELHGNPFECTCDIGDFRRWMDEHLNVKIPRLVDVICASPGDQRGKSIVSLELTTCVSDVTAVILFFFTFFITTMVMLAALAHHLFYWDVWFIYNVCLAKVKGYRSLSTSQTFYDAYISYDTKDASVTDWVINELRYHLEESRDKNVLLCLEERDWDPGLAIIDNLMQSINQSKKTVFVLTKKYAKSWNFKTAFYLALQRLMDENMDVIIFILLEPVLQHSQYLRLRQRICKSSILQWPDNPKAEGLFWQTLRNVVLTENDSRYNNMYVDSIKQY
Description: as §1, §2

human TLR7 = molecular target: T3, human TLR7 (Homo sapiens, UniProt Q9NYK1); assay: TLR7 inhibition reporter assay (HEK-Blue SEAP reporter, gardiquimod stimulation); details: HEK-Blue cells overexpressing human TLR7, SEAP reporter, gardiquimod 7.5 μM, 22 hour incubation
T3 construct: host or cells: HEK-Blue cells
T3 sequence (Q9NYK1 27-1049): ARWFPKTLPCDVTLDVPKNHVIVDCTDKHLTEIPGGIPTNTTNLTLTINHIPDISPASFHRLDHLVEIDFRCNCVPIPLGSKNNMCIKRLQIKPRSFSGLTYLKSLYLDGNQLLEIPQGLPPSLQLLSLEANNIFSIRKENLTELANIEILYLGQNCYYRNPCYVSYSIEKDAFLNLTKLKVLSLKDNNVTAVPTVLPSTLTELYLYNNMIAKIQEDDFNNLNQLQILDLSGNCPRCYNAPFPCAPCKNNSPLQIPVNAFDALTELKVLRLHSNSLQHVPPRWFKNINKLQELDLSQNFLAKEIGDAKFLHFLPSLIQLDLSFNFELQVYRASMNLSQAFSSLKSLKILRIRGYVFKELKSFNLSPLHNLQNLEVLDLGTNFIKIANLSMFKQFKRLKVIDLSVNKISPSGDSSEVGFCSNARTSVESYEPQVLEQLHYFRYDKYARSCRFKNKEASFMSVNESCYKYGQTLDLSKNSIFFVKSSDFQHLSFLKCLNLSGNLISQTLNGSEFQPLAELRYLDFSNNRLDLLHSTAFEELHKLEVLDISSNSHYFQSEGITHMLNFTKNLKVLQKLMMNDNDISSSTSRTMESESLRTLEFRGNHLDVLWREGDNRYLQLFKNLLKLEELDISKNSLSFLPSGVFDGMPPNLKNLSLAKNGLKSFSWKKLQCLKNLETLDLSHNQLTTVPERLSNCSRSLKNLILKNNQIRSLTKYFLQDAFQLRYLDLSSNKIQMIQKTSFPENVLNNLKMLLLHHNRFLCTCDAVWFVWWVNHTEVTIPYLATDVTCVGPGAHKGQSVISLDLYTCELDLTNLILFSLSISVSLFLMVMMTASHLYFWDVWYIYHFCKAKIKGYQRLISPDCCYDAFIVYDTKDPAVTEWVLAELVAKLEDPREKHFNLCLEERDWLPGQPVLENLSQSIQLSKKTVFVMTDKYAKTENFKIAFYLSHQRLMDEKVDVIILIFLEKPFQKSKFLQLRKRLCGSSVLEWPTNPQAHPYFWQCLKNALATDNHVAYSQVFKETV
Description: as §1, §2

Structure (SMILES)	IC50 (human TLR9)	IC50 (human TLR8)	IC50 (human TLR7)
CC(C)c1c(-c2cc(C(=O)N(C)C)c(=O)n(C)c2)[nH]c2ccc(C3CCNCC3)cc12 [Example 63, 5-(3-isopropyl-5-(piperidin-4-yl)-1H-indol-2-yl)-N,N,1-trimethyl-2-oxo-1,2-dihydropyridine-3-carboxamide]	≥ 50000 nM	–	–
Cc1cc(-c2[nH]c3ccc(C4CCN(CC(C)(C)O)CC4)cc3c2C(C)C)cn(Cc2ccccc2)c1=O [Example 329, 1-benzyl-5-(5-(1-(2-hydroxy-2-methylpropyl)piperidin-4-yl)-3-isopropyl-1H-indol-2-yl)-3-methylpyridin-2(1H)-one]	–	32.4 nM	15.8 nM
CC(C)c1c(-c2cc(-c3ccccc3)c(=O)n(C)c2)[nH]c2ccc(C3CCNCC3)cc12 [Example 53, 5-(3-isopropyl-5-(piperidin-4-yl)-1H-indol-2-yl)-1-methyl-3-phenylpyridin-2(1H)-one]	–	10.3 nM	11.4 nM
CCn1nc(-c2[nH]c3ccc(C4CCNCC4)cc3c2C(C)C)c(C)c(C)c1=O [Example 27, 2-ethyl-6-(3-isopropyl-5-(piperidin-4-yl)-1H-indol-2-yl)-4,5-dimethylpyridazin-3(2H)-one]	–	18.5 nM	165 nM
Cc1cc(-c2[nH]c3ccc(C4CCN(CCC(C(F)(F)F)C(F)(F)F)CC4)cc3c2C(C)C)cn(C)c1=O [Example 88, 5-(3-isopropyl-5-(1-(4,4,4-trifluoro-3-(trifluoromethyl)butyl)piperidin-4-yl)-1H-indol-2-yl)-1,3-dimethylpyridin-2(1H)-one]	–	53.2 nM	67.5 nM
Cc1cc(-c2[nH]c3ccc(C4CCN(C(=O)[C@H]5C[C@H](O)CN5)CC4)cc3c2C(C)C)cn(C)c1=O [Example 292, 5-(5-(1-((2R,4S)-4-hydroxypyrrolidine-2-carbonyl)piperidin-4-yl)-3-isopropyl-1H-indol-2-yl)-1,3-dimethylpyridin-2(1H)-one]	–	40.7 nM	7.2 nM
Cc1cc(-c2[nH]c3ccc(C4CCN(C(=O)C5(N)CC5)CC4)cc3c2C(C)C)cn(C)c1=O [Example 272, 5-(5-(1-(1-aminocyclopropanecarbonyl)piperidin-4-yl)-3-isopropyl-1H-indol-2-yl)-1,3-dimethylpyridin-2(1H)-one]	–	53 nM	7.9 nM
Cc1cc(-c2[nH]c3ccc(C4CCN(C5CCC(C(C)C)CC5)CC4)cc3c2C(C)C)cn(C)c1=O (centres unmarked) [Example 234, 5-(3-isopropyl-5-(1-(4-isopropylcyclohexyl)piperidin-4-yl)-1H-indol-2-yl)-1,3-dimethylpyridin-2(1H)-one]	–	52.3 nM	40.2 nM
Cc1cc(-c2[nH]c3ccc(C4CCN(C(=O)[C@@H]5C[C@@H](O)CN5)CC4)cc3c2C(C)C)cn(C)c1=O [Example 293, 5-(5-(1-((2S,4R)-4-hydroxypyrrolidine-2-carbonyl)piperidin-4-yl)-3-isopropyl-1H-indol-2-yl)-1,3-dimethylpyridin-2(1H)-one]	–	–	21.6 nM

Further compounds by falling IC50 (human TLR7), results first:

IC50 (human TLR9)	IC50 (human TLR8)	IC50 (human TLR7)	Structure (SMILES)
–	97 nM	57.7 nM	Cc1cc(-c2[nH]c3ccc(C4CCN(C5CCC(C(C)C)CC5)CC4)cc3c2C(C)C)cn(C)c1=O (centres unmarked) [Example 233, 5-(3-isopropyl-5-(1-(4-isopropylcyclohexyl)piperidin-4-yl)-1H-indol-2-yl)-1,3-dimethylpyridin-2(1H)-one]
–	61.7 nM	17.4 nM	Cc1cc(-c2[nH]c3ccc(C4CCN(C(=O)[C@H]5C[C@H](O)CN5)CC4)cc3c2C(C)C)cn(C)c1=O [Example 288, 5-(5-(1-((2R,4S)-4-hydroxypyrrolidine-2-carbonyl)piperidin-4-yl)-3-isopropyl-1H-indol-2-yl)-1,3-dimethylpyridin-2(1H)-one]
–	1.1 nM	14.1 nM	CCCN1CCC(c2ccc3[nH]c(-c4cc(-c5cncnc5)c(=O)n(C)c4)c(C(C)C)c3c2)CC1 [Example 249, 5-(3-isopropyl-5-(1-propylpiperidin-4-yl)-1H-indol-2-yl)-1-methyl-3-(pyrimidin-5-yl)pyridin-2(1H)-one]
–	–	8.3 nM	Cc1cc(-c2[nH]c3ccc(C4CCN(C(=O)[C@@H]5C[C@@H](O)CN5)CC4)cc3c2C(C)C)cn(C)c1=O [Example 290, 5-(5-(1-((2S,4R)-4-hydroxypyrrolidine-2-carbonyl)piperidin-4-yl)-3-isopropyl-1H-indol-2-yl)-1,3-dimethylpyridin-2(1H)-one]
